# How the values were obtained:
# [1] = test system: rat liver microsomes, P450-RLMs Dex-induced; test: Metabolism with rat liver microsomes (Dex-induced P450-RLMs); format: in vitro ADME; details: 0.05 mM compound, 2 mM NADPH; for conversion rate: 2 mg/mL Dex-induced P450-RLMs, 30 min; for substrate consumption: Dex-induced P450-RLMs, 10 min
# Method: The initial studies on drug metabolism of new UAs were performed with rat liver microsomes under the optimal conditions. HEPES buffer (0.1 M) at pH 7.4 with 2 mM NADPH and 0.05 mM UAs (C-2028 and C-2045) were selected.
# UT-RLMs (2 mg/mL) and P450-RLMs induced with Dex, 3MC, or PB and recombinant P4502C19 and P4503A4 (1 mg/mL) were assayed for activity toward tested UAs as follows. The proteins were incubated in a buffer containing 0.1 M HEPES (pH 7.4), 2 mM MgCl2 with 0.05 mM substrate in total volume 70 µL. Substrates were added also in buffer HEPES, pH 7.4. Reactions were started by the addition of NADPH (2 mM) and were incubated for specified time at 37 °C. The reactions were stopped by the addition of 8.75 µL of 1 M HCl, followed by centrifugation at 13,400 rpm for 10 min to pellet the denatured protein. The supernatant fractions were used for high-performance liquid chromatography (HPLC) analysis. Control reactions omitting substrate were run with each assay. All incubations were performed in two repetitions.
# [2] = test system: HCT-116-UGT1A10 cells; test: Drug metabolism in HCT-116 cells transfected with UGT1A10; format: cell-based, human; details: HCT-116 overexpressing UGT1A10, 50 μM, medium and cell extract, 24 and 72 h
# Method: (§1) To analyze the transformation products of UAs in colon tumor cell lines, HCT-116 or HT-29 cells were plated in 60 mm Petri dishes; after reaching 80% of confluence, cells were treated with 5/25/50 μM of C-2028, C-2045 or C-2053 (prepared as 10 or 2 mM stock solutions in water) for specified time. Half of medium was added to acetonitrile (1:1, v/v), centrifuged (12 min, 13,400 rpm, 4 °C) and the supernatant was analyzed by HPLC (post-culture medium). Cells remaining on the Petri dishes were collected by gentle scraping, sedimented, washed with ice-cold PBS, suspended in ice-cold chloroform and lysed by sonication for 15 min. After 1 h on ice, insoluble material was removed by centrifugation at 13,000 rpm for 20 min at 4 °C. The sediment was discarded and supernatant (chloroform) were evaporated under pressure. Then, sample was suspended in ice-cold 60% methanol and directly analyzed by HPLC (cell extract).
# [3] = molecular target: T1, UGT1A1 (Homo sapiens, UniProt P22309); test: Modulation of UGT1A1 activity (SN-38 glucuronidation); format: in vitro ADME; design: purchased Corning, NY, USA (through DIAG-MED, Poland); host or cells: baculovirus-insect cells (Supersomes); details: SN-38 substrate
# T1 sequence (P22309 26-533): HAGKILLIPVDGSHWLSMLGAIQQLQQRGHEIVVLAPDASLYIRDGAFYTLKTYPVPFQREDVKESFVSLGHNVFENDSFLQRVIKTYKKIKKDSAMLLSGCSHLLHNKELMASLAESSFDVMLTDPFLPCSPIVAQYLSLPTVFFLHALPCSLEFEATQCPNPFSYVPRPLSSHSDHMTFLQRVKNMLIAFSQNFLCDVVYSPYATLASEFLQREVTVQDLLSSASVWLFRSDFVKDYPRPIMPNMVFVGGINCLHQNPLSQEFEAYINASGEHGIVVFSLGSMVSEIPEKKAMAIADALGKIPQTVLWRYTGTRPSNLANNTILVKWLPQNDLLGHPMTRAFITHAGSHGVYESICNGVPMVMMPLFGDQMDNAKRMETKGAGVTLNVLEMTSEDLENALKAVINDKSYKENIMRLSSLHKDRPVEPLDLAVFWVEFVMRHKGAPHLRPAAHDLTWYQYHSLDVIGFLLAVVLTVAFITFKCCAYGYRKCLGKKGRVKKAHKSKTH
# Method: (§2) Isoenzyme activity was studied by the rate measurement of β-hydroxylation of testosterone (specific substrate for P4503A4) and of glucuronidation of specific substrates, namely, SN-38 (UGT1A1), EPI (UGT2B7),) and TFK (UGT2B15). All substrate and drug solutions were prepared as 10 mM stock solutions in DMSO and were diluted in […] (pH 7.4). The mixture containing isoenzymes P4503A4/UGT (0.5 mg/mL), probe substrate (0.1 mM), cofactor 2 mM NADPH/5 mM UDPGA and the increasing concentrations of tested UA (0, 0.01, 0.02 and 0.05 mM) was incubated in the reaction buffer containing (i) for P4503A4 0.1 M HEPES, 88 mM MgCl2 and (ii) for UGT 0.1 M HEPES, 88 mM MgCl2, 25 μg/mL alamethicin at 37 °C for 30 min and were terminated by adding 8.75 µL of 0.1 M HCl. The samples were placed in ice for 10 min and centrifuged (10 min, 13,400 rpm). Supernatant fractions were analyzed by HPLC. For more accurate investigation of P4503A4 inhibition by C-2045 and C-2053 the β-hydroxylation rate was measured at various concentrations of testosterone: 0.02, 0.05, 0.1 and 0.2 mM. The inhibitor (UA) concentrations were 0, 0.001, 0.005 and 0.01 mM, whereas the incubation time 30 min and concentration of P4503A4 (0.5 mg/mL).
# [4] = test system: HT-29 cells; test: Drug metabolism and medium/cell extract distribution in HT-29 colon tumor cells; format: cell-based, human; details: HT-29, 5 μM; for drug level in cell extract: 3-48 h; for metabolite formation in cells: post-culture media and cell extracts
# Method: as §1
# [5] = molecular target: T2, UGT2B7 (Homo sapiens, UniProt P16662); test: Modulation of UGT2B7 activity (epirubicin glucuronidation); format: in vitro ADME; details: epirubicin substrate
# T2 construct: purchased Corning, NY, USA (through DIAG-MED, Poland); host or cells: baculovirus-insect cells (Supersomes)
# T2 sequence (P16662 24-529): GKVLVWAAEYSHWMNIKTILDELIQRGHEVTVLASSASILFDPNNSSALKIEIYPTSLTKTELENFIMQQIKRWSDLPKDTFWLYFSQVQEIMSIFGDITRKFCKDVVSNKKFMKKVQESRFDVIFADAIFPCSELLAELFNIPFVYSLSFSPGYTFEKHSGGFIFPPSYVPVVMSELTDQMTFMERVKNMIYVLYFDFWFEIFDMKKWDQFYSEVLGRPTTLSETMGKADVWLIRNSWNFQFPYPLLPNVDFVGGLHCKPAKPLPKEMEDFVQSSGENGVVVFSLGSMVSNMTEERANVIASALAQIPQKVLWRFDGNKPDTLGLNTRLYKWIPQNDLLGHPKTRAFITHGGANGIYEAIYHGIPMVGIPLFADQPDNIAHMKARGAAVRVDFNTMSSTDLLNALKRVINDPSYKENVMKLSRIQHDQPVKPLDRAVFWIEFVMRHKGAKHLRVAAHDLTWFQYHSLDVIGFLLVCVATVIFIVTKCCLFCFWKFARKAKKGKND
# Method: as §2
conversion rate [1] [%],substrate consumption [1],activity decrease of UGT1A1 ([3]; low concentrations of compound) [%],"inhibition at 30 min ([3]; human, UGT1A1 isoenzyme preparation, pH 7.4, probe SN-38, higher concentrations of compound, read-out: inhibition rate of UGT1A1) [%]",decrease in the activity of UGT2B7 ([5]; 0.01 mM and 0.02 mM compound) [%],"inhibition at 30 min, 0.05 mM ([5]; human, UGT2B7 isoenzyme preparation, pH 7.4, probe epirubicin (EPI), 0.05 mM compound) [%]",SMILES,metabolite formation in cells [2],drug level in cell extract [4],metabolite formation in cells [4]
80,not metabolized,,,,,Cc1ccc([N+](=O)[O-])c2c(NCCCN(C)CCCNc3ccc4ncn5c6ccc(O)cc6c(=O)c3c45)c3ccccc3nc12 [C-2045],"metabolized the substrate to the derivative, which was found in the cell medium rather than in the cell extract",,
100,completely consumed,77,65 to 70,60,90,CN(CCCNc1c2ccccc2nc2cccc([N+](=O)[O-])c12)CCCNc1ccc2ncn3c4ccccc4c(=O)c1c23 [C-2028],,high up to 24 hours and diminished significantly after 48 hours,did not indicate the presence of metabolites
,,,,,,Cc1ccc([N+](=O)[O-])c2c(NCCCN(C)CCCNc3ccc4ncn5c6ccccc6c(=O)c3c45)c3ccccc3nc12 [C-2053],,extremely high level,did not indicate the presence of metabolites
